From patent US7981939B2, “Application of 2-bromide-isovanillin for the manufacture of a medicament for anti-cancer or/and radiation/chemotherapy sensitization” (Institute of Radiation Medicine, Academy of Military …, priority 2005, dated 2011)

Key:
[1] = test system: spindle structure in HepG2 cells; assay: Spindle structure by immunofluorescent labeling of tubulin, HepG2; assay type: cell-based, human; details: HepG2, 40 μmol/L, 24 hrs
Text: 3. […] The influence of 2-bromo-isovanillin on the spindle structure in HepG2 cells was further studied by means of in situ immunofluorescence hybridization by immunofluorescent labeling of tubulin. […] The cells with impaired spindle function could not undergo normal division, thereby leading to rapid cell death, i.e., mitotic catastrophe.

[2] = target: T1, nuclear protein DNA-PKcs serine/threonine protein kinase (Homo sapiens, UniProt P78527); assay: DNA-PKcs kinase activity in nuclear protein of treated HepG2 cells; assay type: cell-based; details: 24 hrs
T1 construct: adding nuclear proteins to the solid phase reaction system; endogenous in cells; host or cells: HepG2 human liver cancer cells (nuclear protein extract)
Experimental: The activity of nuclear protein DNA-PKcs serine/threonine protein kinase in human liver cancer cells HepG2 treated with 0, 10, 20, 40, 100 μmol/L 2-bromo-isovanillin for 24 hrs was determined by using […] DNA dependent protein kinase assay kit (Promega), according to the manufacturer's instructions, and the treatment with 100 μmol/L vanillin for the same period of time served as control. Basically, the assay was carried out by immobilizing the phosphorylation substrate specific to DNA-PKcs, i.e., a peptide derived from p53 protein onto a cellulose membrane, adding nuclear proteins to the solid phase reaction system, isotopically labeling the substrate by phosphorylation using γ-^32P ATP, removing non-specific signals after the isotope labeling, and visualizing the kinase activity upon X-ray film developing.

## COc1ccc(C=O)c(Br)c1O [2-bromo-isovanillin, 2-bromo-3-hydroxy-4-methoxybenzaldehyde]
[1]
  M phase cells with multiple centrosomes or destroyed spindle structure: more than 65%
  ratio of cells at mitotic phase: significantly increased
[2]; HepG2, 20 μmol/L
  effect on DNA-PKcs kinase activity: significantly inhibited
[2]; HepG2, 40-100 μmol/L, compared with 20 μmol/L
  inhibitory effect on DNA-PKcs kinase activity: more remarkable
